Changes are numbered by the printed parent chain.

Experiment [1] has as its system T1, Lysosomal alpha-mannosidase (Homo sapiens), O00754 [C55F].
T1 sequence (whole entry): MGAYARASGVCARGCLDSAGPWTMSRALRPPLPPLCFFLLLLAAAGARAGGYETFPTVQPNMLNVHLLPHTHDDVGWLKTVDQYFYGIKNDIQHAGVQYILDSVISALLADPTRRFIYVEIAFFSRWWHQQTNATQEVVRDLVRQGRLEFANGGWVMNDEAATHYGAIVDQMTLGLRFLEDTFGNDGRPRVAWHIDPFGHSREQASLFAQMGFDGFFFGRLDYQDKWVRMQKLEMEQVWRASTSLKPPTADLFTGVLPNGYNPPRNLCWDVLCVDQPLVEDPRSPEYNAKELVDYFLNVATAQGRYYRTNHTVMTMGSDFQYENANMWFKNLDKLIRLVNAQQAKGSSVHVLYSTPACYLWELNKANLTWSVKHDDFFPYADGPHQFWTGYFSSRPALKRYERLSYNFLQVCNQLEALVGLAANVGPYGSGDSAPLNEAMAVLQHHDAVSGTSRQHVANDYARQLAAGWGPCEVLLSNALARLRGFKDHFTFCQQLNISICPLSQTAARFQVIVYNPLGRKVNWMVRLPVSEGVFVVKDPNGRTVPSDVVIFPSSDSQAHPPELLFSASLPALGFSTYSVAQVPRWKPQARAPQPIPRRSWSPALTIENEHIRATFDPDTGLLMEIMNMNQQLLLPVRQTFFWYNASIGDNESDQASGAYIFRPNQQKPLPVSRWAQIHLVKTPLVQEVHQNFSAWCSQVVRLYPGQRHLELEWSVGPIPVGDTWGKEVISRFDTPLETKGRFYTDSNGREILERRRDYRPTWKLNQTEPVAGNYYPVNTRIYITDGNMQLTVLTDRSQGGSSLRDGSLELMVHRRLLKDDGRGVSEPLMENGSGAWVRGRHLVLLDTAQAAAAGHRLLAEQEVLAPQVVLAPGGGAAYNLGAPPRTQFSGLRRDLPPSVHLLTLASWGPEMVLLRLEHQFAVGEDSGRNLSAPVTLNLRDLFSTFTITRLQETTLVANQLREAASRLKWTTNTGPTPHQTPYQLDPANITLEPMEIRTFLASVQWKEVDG
Briefly: Chaperone activity at human Lysosomal alpha-mannosidase C55F mutant transfected in human […] knockout HAP1 cells assessed as enzyme activity enhancement at 20 uM incubated for 96 hrs relative to control.

Experiment [2] addresses T2, Lysosomal alpha-mannosidase (Homo sapiens) (UniProt O00754).
T2 sequence (whole entry): T1 sequence (whole entry) with F55C
Briefly: Chaperone activity at Lysosomal alpha-mannosidase in wild-type human fibroblasts assessed as increase in Lysosomal alpha-mannosidase activity at 0.2 uM using 4-methylumbelliferone alpha-D-mannopyranoside as a reporter substrate incubated for 4 days by fluorescence method relative to control.

As to `CC(C)(C)OC(=O)NCCCCCCCCCN[C@@H]1[C@@H](O)[C@@H](O)[C@H](O)[C@H]2COC(=O)N21`, the Activity in experiment [1] turned out to be 111%. Turning to `COC[C@H]1O[C@@H]2O[C@H]3[C@H](OC)[C@@H](OC)[C@@H](O[C@H]4[C@H](OC)[C@@H](OC)[C@@H](O[C@H]5[C@H](OC)[C@@H](OC)[C@@H](O[C@H]6[C@H](OC)[C@@H](OC)[C@@H](O[C@H]7[C@H](OC)[C@@H](OC)[C@@H](O[C@H]8[C@H](OC)[C@@H](OC)[C@@H](O[C@H]1[C@H](OC)[C@H]2OC)O[C@@H]8COC)O[C@@H]7COC)O[C@@H]6COC)O[C@@H]5COCc1cn(CCCCCCN[C@@H]2[C@@H](O)[C@@H](O)[C@H](O)[C@H]5COC(=O)N52)nn1)O[C@@H]4COC)O[C@@H]3COC`, the fold change (FC) in experiment [2] was 2. Also, in experiment [1], the Activity amounted to 16%. For `CCCc1cn(CCCCCCN[C@@H]2[C@@H](O)[C@@H](O)[C@H](O)[C@H]3COC(=O)N32)nn1`, the fold change (FC) in experiment [2] stood at 2.

For the origin of these results see ChEMBL document CHEMBL4396870, “Pharmacological Chaperones for the Treatment of α-Mannosidosis” (J Med Chem, 2019).
